Where a name gives a salt, the structure may show the parent alone.
SMILES | melting point
CN1CCC(Oc2cc(F)ccc2F)c2ccc(-c3cccnn3)cc2C1 (centres unmarked) (as salt: tartrate) [Example 54, 5-(2,5-difluorophenoxy)-2-methyl-8-(pyridazin-3-yl)-2,3,4,5-tetrahydro-1H-benzo[c]azepine] | 102 to 104 °C
CN1CCC(Oc2ccc(C#N)cc2)c2ccc(-c3cccnn3)cc2C1 (centres unmarked) (as salt: tartrate) [Example 53, 5-(4-cyanophenoxy)-2-methyl-8-(pyridazin-3-yl)-2,3,4,5-tetrahydro-1H-benzo[c]azepine] | 110 to 112 °C
CN1CCC(Oc2ccccc2)c2ccc(-c3cccnn3)cc2C1 (centres unmarked) (as salt: tartrate) [Example 10, 2-methyl-5-phenoxy-8-(pyridazin-3-yl)-2,3,4,5-tetrahydro-1H-benzo[c]azepine] | 98 to 100 °C
Cc1ccc(OC2CCN(C)Cc3cc(-c4cccnn4)ccc32)cc1 (centres unmarked) (as salt: tartrate) [Example 3, 2-methyl-8-(pyridazin-3-yl)-5-(p-tolyloxy)-2,3,4,5-tetrahydro-1H-benzo[c]azepine] | 104 to 106 °C
CN1CCC(Oc2cccc3ccccc23)c2ccc(-c3cccnn3)cc2C1 (centres unmarked) (as salt: tartrate) [Example 15, 2-Methyl-5-(naphthalen-1-yloxy)-8-(pyridazin-3-yl)-2,3,4,5-tetrahydro-1H-benzo[c]azepine] | 100 to 102 °C
CN1CCC(Oc2ccc3ccccc3c2)c2ccc(-c3cccnn3)cc2C1 (centres unmarked) (as salt: tartrate) [Example 1, 2-methyl-5-(naphthalen-2-yloxy)-8-(pyridazin-3-yl)-2,3,4,5-tetrahydro-1H-benzo[c]azepine] | 122 to 124 °C
CN1CCC(Oc2cccnc2)c2ccc(-c3cccnn3)cc2C1 (centres unmarked) (as salt: tartrate) [Example 11, 2-methyl-8-(pyridazin-3-yl)-5-(pyridin-3-yloxy)-2,3,4,5-tetrahydro-1H-benzo[c]azepine] | 120 to 123 °C
CN1CCC(Oc2cccc(C#N)c2)c2ccc(-c3cccnn3)cc2C1 (centres unmarked) (as salt: tartrate) [Example 52, 5-(3-cyanophenoxy)-2-methyl-8-(pyridazin-3-yl)-2,3,4,5-tetrahydro-1H-benzo[c]azepine] | 113 to 115 °C
CN1CCC(Oc2ccc(OC(F)(F)F)cc2)c2ccc(-c3cccnn3)cc2C1 (centres unmarked) (as salt: tartrate) [Example 4, 2-methyl-8-(pyridazin-3-yl)-5-(4-(trifluoromethoxy)phenoxy)-2,3,4,5-tetrahydro-1H-benzo[c]azepine] | 104 to 106 °C
CN1CCC(Oc2ccc3cccnc3c2)c2ccc(-c3cccnn3)cc2C1 (centres unmarked) (as salt: tartrate) [Example 33, 2-methyl-8-(pyridazin-3-yl)-5-(quinolin-7-yloxy)-2,3,4,5-tetrahydro-1H-benzo[c]azepine] | 120 to 122 °C
CN1CCC(Oc2ccccc2Cl)c2ccc(-c3cccnn3)cc2C1 (centres unmarked) (as salt: tartrate) [Example 34, 5-(2-chlorophenoxy)-2-methyl-8-(pyridazin-3-yl)-2,3,4,5-tetrahydro-1H-benzo[c]azepine] | 100 to 102 °C
CN1CCC(Oc2ccc(Cl)c(Cl)c2)c2ccc(-c3cccnn3)cc2C1 (centres unmarked) (as salt: tartrate) [Example 7, 5-(3,4-Dichlorophenoxy)-2-methyl-8-(pyridazin-3-yl)-2,3,4,5-tetrahydro-1H-benzo[c]azepine] | 102 to 104 °C
CN1CCC(Oc2ccc3ccccc3c2)c2ccc(-c3cccnn3)cc2C1 (centres unmarked) (as salt: tartrate) [Example 18, 5-(naphthalen-2-yloxy)-2-methyl-8-(pyridazin-3-yl)-2,3,4,5-tetrahydro-1H-benzo[c]azepine] | 120 to 122 °C
CN1CCC(Oc2cccc(F)c2F)c2ccc(-c3cccnn3)cc2C1 (centres unmarked) (as salt: tartrate) [Example 51, 5-(2,3-difluorophenoxy)-2-methyl-8-(pyridazin-3-yl)-2,3,4,5-tetrahydro-1H-benzo[c]azepine] | 112 to 114 °C
CN1CCC(Oc2ccccc2)c2ccc(-c3ncccn3)cc2C1 (centres unmarked) (as salt: tartrate) [Example 49, 2-Methyl-5-phenoxy-8-(pyrimidin-2-yl)-2,3,4,5-tetrahydro-1H-benzo[c]azepine] | 108 to 110 °C
CN1CCC(Oc2ccc(Cl)cc2)c2ccc(-c3cccnn3)cc2C1 (centres unmarked) (as salt: tartrate) [Example 2, 5-(4-chlorophenoxy)-2-methyl-8-(pyridazin-3-yl)-2,3,4,5-tetrahydro-1H-benzo[c]azepine] | 106 to 108 °C
CN1CCC(Oc2ccc(F)cc2F)c2ccc(-c3cccnn3)cc2C1 (centres unmarked) (as salt: tartrate) [Example 9, 5-(2,4-Difluorophenoxy)-2-methyl-8-(pyridazin-3-yl)-2,3,4,5-tetrahydro-1H-benzo[c]azepine] | 98 to 100 °C
CN1CCC(Oc2cccc(F)c2)c2ccc(-c3cccnn3)cc2C1 (centres unmarked) (as salt: tartrate) [Example 13, 5-(3-fluorophenoxy)-2-methyl-8-(pyridazin-3-yl)-2,3,4,5-tetrahydro-1H-benzo[c]azepine] | 96 to 98 °C
CN1CCC(Oc2ccc(C#N)cc2)c2ccc(-c3cccnn3)cc2C1 (centres unmarked) (as salt: tartrate) [Example 6, 4-(2-Methyl-8-(pyridazin-3-yl)-2,3,4,5-tetrahydro-1H-benzo[c]azepin-5-yloxy)benzonitrile] | 94 to 96 °C
CN1CCC(Oc2cc(F)cc(F)c2)c2ccc(-c3cccnn3)cc2C1 (centres unmarked) (as salt: tartrate) [Example 14, 5-(3,5-difluorophenoxy)-2-methyl-8-(pyridazin-3-yl)-2,3,4,5-tetrahydro-1H-benzo[c]azepine] | 120 to 122 °C
CN1CCC(Oc2ccccc2F)c2ccc(-c3cccnn3)cc2C1 (centres unmarked) (as salt: tartrate) [Example 12, 5-(2-fluorophenoxy)-2-methyl-8-(pyridazin-3-yl)-2,3,4,5-tetrahydro-1H-benzo[c]azepine] | 96 to 98 °C
CN1CCC(Oc2ccccc2Cl)c2ccc(-c3cccnn3)cc2C1 (centres unmarked) (as salt: tartrate) [Example 35, 5-(2-chlorophenoxy)-2-methyl-8-(pyridazin-3-yl)-2,3,4,5-tetrahydro-1H-benzo[c]azepine] | 104 to 106 °C
CN1CCC(Oc2ccc(F)c(F)c2)c2ccc(-c3cccnn3)cc2C1 (centres unmarked) (as salt: tartrate) [Example 8, 5-(3,4-Difluorophenoxy)-2-methyl-8-(pyridazin-3-yl)-2,3,4,5-tetrahydro-1H-benzo[c]azepine] | 100 to 102 °C
Cc1ccc(-c2ccc3c(c2)CNCCC3Oc2ccccc2)nn1 (centres unmarked) (as salt: tartrate) [Example 32, 8-(6-methylpyridazin-3-yl)-5-phenoxy-2,3,4,5-tetrahydro-1H-benzo[c]azepine] | 115 to 118 °C
CN1CCC(Oc2c(F)cccc2F)c2ccc(-c3cccnn3)cc2C1 (centres unmarked) (as salt: tartrate) [Example 55, 5-(2,6-difluorophenoxy)-2-methyl-8-(pyridazin-3-yl)-2,3,4,5-tetrahydro-1H-benzo[c]azepine] | 98 to 100 °C
CN1CCC(Oc2cc(F)cc(F)c2)c2ccc(-c3cccnn3)cc2C1 (centres unmarked) (as salt: tartrate) [Example 5, 5-(3,5-difluorophenoxy)-2-methyl-8-(pyridazin-3-yl)-2,3,4,5-tetrahydro-1H-benzo[c]azepine] | 94 to 96 °C
